pIC50: −log10 of the molar value. ≈ marks a conversion by molar mass, not a printed value. Calls of active or inactive are those of the source. The rule behind the calls is not given here.
Columns and labels:
[1] = target: T1, Beta-ketoacyl-ACP-synthase III (Plasmodium falciparum, UniProt O77078); experiment: Inhibition of Plasmodium falciparum FabH
T1 sequence (O77078 whole entry): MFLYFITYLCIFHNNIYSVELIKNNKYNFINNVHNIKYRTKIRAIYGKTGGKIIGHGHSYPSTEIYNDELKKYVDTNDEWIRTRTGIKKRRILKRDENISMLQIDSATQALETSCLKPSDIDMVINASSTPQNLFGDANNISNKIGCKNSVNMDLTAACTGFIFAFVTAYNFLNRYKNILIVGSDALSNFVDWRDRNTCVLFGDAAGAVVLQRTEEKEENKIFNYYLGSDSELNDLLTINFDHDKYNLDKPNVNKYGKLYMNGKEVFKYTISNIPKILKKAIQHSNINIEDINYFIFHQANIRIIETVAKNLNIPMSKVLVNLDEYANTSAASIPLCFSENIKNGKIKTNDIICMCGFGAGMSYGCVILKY

[2] = target: T2, Mycobacterial beta-ketoacyl-[acyl-carrier-protein] synthase III (Mycobacterium tuberculosis, UniProt P9WNG3); experiment: Inhibition of Mycobacterium tuberculosis FabH
T2 sequence (P9WNG3 whole entry): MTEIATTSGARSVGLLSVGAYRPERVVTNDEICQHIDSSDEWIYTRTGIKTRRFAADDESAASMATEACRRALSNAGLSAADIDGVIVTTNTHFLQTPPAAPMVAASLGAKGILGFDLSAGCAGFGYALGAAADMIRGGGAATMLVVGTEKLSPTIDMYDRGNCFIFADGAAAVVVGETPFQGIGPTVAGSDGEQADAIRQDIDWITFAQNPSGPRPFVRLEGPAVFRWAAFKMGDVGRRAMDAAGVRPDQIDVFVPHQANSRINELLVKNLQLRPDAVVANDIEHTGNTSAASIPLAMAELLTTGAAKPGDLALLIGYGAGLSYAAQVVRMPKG

[3] = Inhibition of Escherichia coli FabH
Escherichia coli [4] = experiment: Antibacterial activity against Escherichia coli tolC mutant; type: functional
Plasmodium falciparum = experiment: Antiplasmodial activity against chloroquine-sensitive Plasmodium falciparum D6; type: functional, organism-based
Escherichia coli [5] = experiment: Inhibition of Escherichia coli FabH assessed as restoration activity in presence of phosphate buffer after 16 hrs; set-up: scale not given: the % may be the effect or the level left
[6] = target: T3, Beta-ketoacyl-ACP-synthase III (Plasmodium falciparum) (UniProt O77078); experiment: Inhibition of Plasmodium falciparum FabH at below 100 uM
T3 sequence (whole entry): T1 sequence (O77078 whole entry)

Escherichia coli [7] = experiment: Inhibition of Escherichia coli FabH at below 10 uM

SMILES | pIC50 [1] | pIC50 [2] | pIC50 [3] | MIC99 (Escherichia coli [4]) [µg/mL] | IC50 (Plasmodium falciparum) [µg/mL] | Activity (Escherichia coli [5]) [%] | Activity [6] | Activity (Escherichia coli [7])
O=C(O)CCS(=O)(=O)c1cc(O)c2ccccc2c1O | 7.33 | 8.45 | 7.02 |  |  |  |  | 
Cc1ccc(S(=O)(=O)c2cc(O)c3ccccc3c2O)cc1 | 7.13 | 9.21 | 7.87 | 14.1 (≈ 44.9 µM) | 7.69 (≈ 24.5 µM) | 90 |  | 
CS(=O)(=O)c1cc(O)c2ccccc2c1O | 7.56 | 8.45 | 7.06 | 9.7 (≈ 40.7 µM) |  |  |  | 
O=S(=O)(c1ccccc1)c1cc(O)c2ccccc2c1O | 6.55 | 8.55 | 7.67 |  |  |  |  | 
Cc1ccc(S(=O)(=O)c2cc(O)ccc2O)cc1 |  | 7.46 | < 5.00 | > 90 | 31.3 (≈ 119 µM) |  | inactive | inactive
CC(=O)Nc1ccc(S(=O)(=O)c2cc(O)ccc2O)cc1 |  | 7.50 | < 5.00 | > 90 | 3.96 (≈ 12.9 µM) |  | inactive | inactive
CC(=O)Nc1ccc(S(=O)(=O)c2cc(O)c3ccccc3c2O)cc1 | 7.53 | 8.42 | 7.93 | 12.3 (≈ 34.4 µM) | 4.98 (≈ 13.9 µM) |  |  | 
Cc1ccc(S(=O)(=O)c2cc(O)c3cc4ccccc4cc3c2O)cc1 | 6.47 | 8.07 | 6.95 |  |  |  |  | 
O=S(=O)(c1ccc(Cl)cc1)c1cc(O)c2ccccc2c1O | 6.89 | 8.44 | 8.06 |  | 3.23 (≈ 9.65 µM) |  |  | 
CCCc1ccc(S(=O)(=O)c2cc(O)c3ccccc3c2O)cc1 | 7.14 | 8.51 | 8.01 |  |  |  |  | 
Cc1ccc(SC2=CC(=O)c3ccccc3C2=O)cc1 |  | 6.95 |  |  |  |  | inactive | inactive
Cc1ccc(S(=O)(=O)c2ccc3ccccc3c2)cc1 |  | 6.86 | < 5.00 | > 90 | 8.74 (≈ 31 µM) |  | inactive | inactive
Cc1ccc(S(=O)(=O)C2=CC(=O)c3ccccc3C2=O)cc1 | 5.85 | 8.70 | 6.73 |  |  |  |  | 
O=S(=O)(c1ccc2ccccc2c1)c1cc(O)c2ccccc2c1O | 6.41 | 8.83 | 7.81 |  |  |  |  | 
